Reference: ChEMBL document CHEMBL3272085, “Quantitative structure-activity relationships. 2. A mixed approach, based on Hansch and Free-Wilson Analysis” (1976)

System: Staphylococcus aureus
Experiment: Antimicrobial activity against Staphylococcus aureus
Format: functional

`CCCCCCCCCCCCCCCCCC[N+](C)(C)Cc1ccccc1` and `CCCCCCCCCCCCCCCCCC[N+](C)(C)Cc1ccccc1Cl` are within 0.2 log units of each other in “log(1/C)” value: 3.34 for the first, 3.43 for the second.

Compared with `CCCCCCCCCC[N+](C)(C)Cc1ccccc1`, `CCCCCCCCCC[N+](C)(C)Cc1ccccc1Cl` is higher in “log(1/C)” value: 2.79 for the first, 3.41 for the second.

Compared with `CCCCCCCCCCCC[N+](C)(C)Cc1ccc(Cl)cc1`, `CCCCCCCCCCCCCC[N+](C)(C)Cc1ccc(Cl)cc1` is higher in “log(1/C)” value: 4.04 for the first, 4.34 for the second.

Compared with `CCCCCCCC[N+](C)(C)Cc1ccccc1Cl`, `CCCCCCCCCCCC[N+](C)(C)Cc1ccccc1Cl` is higher in “log(1/C)” value: 2.02 for the first, 4.14 for the second.

Compared with `CCCCCCCCCCCCCC[N+](C)(C)Cc1ccccc1Cl`, `CCCCCCCCCCCCCCCC[N+](C)(C)Cc1ccccc1Cl` is lower in “log(1/C)” value: 4.14 for the first, 3.74 for the second.

First: CCCCCCCC[N+](C)(C)Cc1ccc(Cl)cc1
Second: CCCCCCCCCC[N+](C)(C)Cc1ccc(Cl)cc1
The “log(1/C)” value of the first is lower: 2.6 for the first, 3.6 for the second.

Going from `CCCCCCCCCCCCCCCC[N+](C)(C)Cc1ccc(Cl)cc1` to `CCCCCCCCCCCCCCCCCC[N+](C)(C)Cc1ccc(Cl)cc1`, the “log(1/C)” value falls from 3.85 to 3.17.

Compared with `CCCCCCCC[N+](C)(C)Cc1ccc([N+](=O)[O-])cc1`, `CCCCCCCCCC[N+](C)(C)Cc1ccc([N+](=O)[O-])cc1` is higher in “log(1/C)” value: 2.11 for the first, 3.11 for the second.

`CCCCCCCCCCCC[N+](C)(C)Cc1ccc([N+](=O)[O-])cc1` and `CCCCCCCCCCCCCC[N+](C)(C)Cc1ccc([N+](=O)[O-])cc1` are within 0.2 log units of each other in “log(1/C)” value: 4.2 for the first, 4.23 for the second.

Going from `CCCCCCCCCCCCCCCC[N+](C)(C)Cc1ccc([N+](=O)[O-])cc1` to `CCCCCCCCCCCCCCCCCC[N+](C)(C)Cc1ccc([N+](=O)[O-])cc1`, the “log(1/C)” value falls from 4 to 3.46.

First: CCCCCCCC[N+](C)(C)Cc1ccc(Cl)cc1Cl
Second: CCCCCCCCCC[N+](C)(C)Cc1ccc(Cl)cc1Cl
The “log(1/C)” value of the first is lower: 2.63 for the first, 3.65 for the second.

`CCCCCCCCCCCC[N+](C)(C)Cc1ccc(Cl)cc1Cl` and `CCCCCCCCCCCCCC[N+](C)(C)Cc1ccc(Cl)cc1Cl` are within 0.2 log units of each other in “log(1/C)” value: 4.25 for the first, 4.28 for the second.

`CCCCCCCCCCCCCCCC[N+](C)(C)Cc1ccc(Cl)cc1Cl` and `CCCCCCCCCCCCCCCCCC[N+](C)(C)Cc1ccc(Cl)cc1Cl` are within 0.2 log units of each other in “log(1/C)” value: 3.41 for the first, 3.3 for the second.

Going from `CCCCCCCC[N+](C)(C)Cc1ccc(Cl)c(Cl)c1` to `CCCCCCCCCC[N+](C)(C)Cc1ccc(Cl)c(Cl)c1`, the “log(1/C)” value rises from 2.92 to 3.79.

First: CCCCCCCCCCCC[N+](C)(C)Cc1ccc(Cl)c(Cl)c1
Second: CCCCCCCCCCCCCC[N+](C)(C)Cc1ccc(Cl)c(Cl)c1
The “log(1/C)” value of the first is higher: 4.36 for the first, 4.04 for the second.

First: CCCCCCCCCCCCCCCC[N+](C)(C)Cc1ccc(Cl)c(Cl)c1
Second: CCCCCCCCCCCCCCCCCC[N+](C)(C)Cc1ccc(Cl)c(Cl)c1
The “log(1/C)” value of the first is higher: 3.39 for the first, 3.11 for the second.

Compared with `CCCCCCCCCCCC[N+](C)(C)Cc1ccc(OC)c(OC)c1`, `CCCCCCCCCCCCCC[N+](C)(C)Cc1ccc(OC)c(OC)c1` is higher in “log(1/C)” value: 3.71 for the first, 4.11 for the second.

Going from `CCCCCCCCCCCCCCCC[N+](C)(C)Cc1ccc(OC)c(OC)c1` to `CCCCCCCCCCCCCCCC[N+](C)(C)Cc1ccc2c(c1)OCO2`, the “log(1/C)” value rises from 3.41 to 4.2.

First: CCCCCCCC[N+](C)(C)Cc1ccc2c(c1)OCO2
Second: CCCCCCCCCC[N+](C)(C)Cc1ccc2c(c1)OCO2
The “log(1/C)” value of the first is lower: 2.04 for the first, 3.08 for the second.

Going from `CCCCCCCCCCCC[N+](C)(C)Cc1ccc2c(c1)OCO2` to `CCCCCCCCCCCCCC[N+](C)(C)Cc1ccc2c(c1)OCO2`, the “log(1/C)” value rises from 4 to 4.23.

For `CCCCCCCCCCCCCCCCCC[N+](C)(C)Cc1ccc2c(c1)OCO2`, the “log(1/C)” value was 3.23.

Organism: Rattus norvegicus
Experiment: Thyroxine-like activity in rat by antigoiter assay relative to control
Format: functional

Compared with `Cc1cc(C[C@H](N)C(=O)O)cc(C)c1Oc1ccc(O)c(C(C)C)c1`, `Cc1cc(Oc2c(C)cc(C[C@H](N)C(=O)O)cc2C)ccc1O` is lower in Activity: 18% for the first, 3% for the second.

Compared with `CC(C)c1cc(Oc2c(Br)cc(C[C@H](N)C(=O)O)cc2Br)ccc1O`, `N[C@@H](Cc1cc(Br)c(Oc2ccc(O)c(Br)c2)c(Br)c1)C(=O)O` is lower in Activity: 450% for the first, 44% for the second.

Going from `Cc1cc(C[C@H](N)C(=O)O)cc(I)c1Oc1ccc(O)c(I)c1` to `Cc1cc(Oc2c(I)cc(C[C@H](N)C(=O)O)cc2I)ccc1O`, the Activity rises from 40% to 126%.

Compared with `N[C@@H](Cc1cc(I)c(Oc2ccc(O)cc2)c(I)c1)C(=O)O`, `N[C@@H](Cc1cc(I)c(Oc2ccc(O)c(O)c2)c(I)c1)C(=O)O` is lower in Activity: 10% for the first, 1.5% for the second.

Going from `N[C@@H](Cc1cc(I)c(Oc2ccc(O)c(F)c2)c(I)c1)C(=O)O` to `N[C@@H](Cc1cc(I)c(Oc2ccc(O)c(Br)c2)c(I)c1)C(=O)O`, the Activity rises from 8% to 138%.

First: CCc1cc(Oc2c(I)cc(C[C@H](N)C(=O)O)cc2I)ccc1O
Second: CC(C)Cc1cc(Oc2c(I)cc(C[C@H](N)C(=O)O)cc2I)ccc1O
The Activity of the first is higher: 506% for the first, 60% for the second.

Compared with `CC(C)c1cc(Oc2c(I)cc(C[C@H](N)C(=O)O)cc2I)ccc1O`, `N[C@@H](Cc1cc(I)c(Oc2ccc(O)c(Cl)c2)c(I)c1)C(=O)O` is lower in Activity: 868% for the first, 27% for the second.

Going from `CC(C)(C)c1cc(Oc2c(I)cc(C[C@H](N)C(=O)O)cc2I)ccc1O` to `N[C@@H](Cc1cc(I)c(Oc2ccc(O)c(I)c2)c(I)c1)C(=O)O` [LIOTHYRONINE], the Activity rises from 120% to 545%.

Going from `N[C@@H](Cc1cc(I)c(Oc2ccc(O)c(-c3ccccc3)c2)c(I)c1)C(=O)O` to `N[C@@H](Cc1cc(I)c(Oc2cc(F)c(O)c(F)c2)c(I)c1)C(=O)O`, the Activity falls from 32% to 1.8%.

Compared with `N[C@@H](Cc1cc(I)c(Oc2cc(Cl)c(O)c(Cl)c2)c(I)c1)C(=O)O`, `N[C@@H](Cc1cc(Cl)c(Oc2cc(I)c(O)c(I)c2)c(Cl)c1)C(=O)O` is lower in Activity: 0.9% for the first, 0.1% for the second.

Compared with `N[C@@H](Cc1cc(I)c(Oc2cc(Br)c(O)c(Br)c2)c(I)c1)C(=O)O`, `N[C@@H](Cc1cc(Br)c(Oc2cc(I)c(O)c(I)c2)c(Br)c1)C(=O)O` is higher in Activity: 10% for the first, 12.5% for the second.

Compared with `N[C@@H](Cc1cc(I)c(Oc2cc(F)c(O)c(I)c2)c(I)c1)C(=O)O`, `N[C@@H](Cc1cc(I)c(Oc2cc(I)c(O)c(I)c2)c(I)c1)C(=O)O` [LEVOTHYROXINE] is higher in Activity: 28% for the first, 100% for the second.

Compared with `N[C@@H](Cc1cc(Br)c(Oc2ccc(O)c(I)c2)c(Br)c1)C(=O)O`, `Cc1cc(C[C@H](N)C(=O)O)cc(C)c1Oc1ccc(O)c(I)c1` is lower in Activity: 130% for the first, 5% for the second.

Compared with `N[C@@H](Cc1cc(Br)c(Oc2cc(Br)c(O)c(Br)c2)c(Br)c1)C(=O)O`, `Cc1cc(Oc2c(C)cc(C[C@H](N)C(=O)O)cc2C)cc(C)c1O` is higher in Activity: 0.51% for the first, 2% for the second.

Going from `Cc1cc(C[C@H](N)C(=O)O)cc(C)c1Oc1ccc(O)c(C(C)C)c1` to `Cc1cc(Oc2c(C)cc(C[C@H](N)C(=O)O)cc2C)ccc1O`, the “log(activity)” value falls from 1.26 to 0.48.

Going from `CC(C)c1cc(Oc2c(Br)cc(C[C@H](N)C(=O)O)cc2Br)ccc1O` to `N[C@@H](Cc1cc(Br)c(Oc2ccc(O)c(Br)c2)c(Br)c1)C(=O)O`, the “log(activity)” value falls from 2.65 to 1.64.

Compared with `Cc1cc(C[C@H](N)C(=O)O)cc(I)c1Oc1ccc(O)c(I)c1`, `Cc1cc(Oc2c(I)cc(C[C@H](N)C(=O)O)cc2I)ccc1O` is higher in “log(activity)” value: 1.6 for the first, 2.1 for the second.

First: N[C@@H](Cc1cc(I)c(Oc2ccc(O)cc2)c(I)c1)C(=O)O
Second: N[C@@H](Cc1cc(I)c(Oc2ccc(O)c(O)c2)c(I)c1)C(=O)O
The “log(activity)” value of the first is higher: 1 for the first, 0.18 for the second.

Compared with `N[C@@H](Cc1cc(I)c(Oc2ccc(O)c(F)c2)c(I)c1)C(=O)O`, `N[C@@H](Cc1cc(I)c(Oc2ccc(O)c(Br)c2)c(I)c1)C(=O)O` is higher in “log(activity)” value: 0.9 for the first, 2.14 for the second.

Compared with `CCc1cc(Oc2c(I)cc(C[C@H](N)C(=O)O)cc2I)ccc1O`, `CC(C)Cc1cc(Oc2c(I)cc(C[C@H](N)C(=O)O)cc2I)ccc1O` is lower in “log(activity)” value: 2.7 for the first, 1.78 for the second.

Going from `CC(C)c1cc(Oc2c(I)cc(C[C@H](N)C(=O)O)cc2I)ccc1O` to `N[C@@H](Cc1cc(I)c(Oc2ccc(O)c(Cl)c2)c(I)c1)C(=O)O`, the “log(activity)” value falls from 2.94 to 1.43.

Going from `CC(C)(C)c1cc(Oc2c(I)cc(C[C@H](N)C(=O)O)cc2I)ccc1O` to `N[C@@H](Cc1cc(I)c(Oc2ccc(O)c(I)c2)c(I)c1)C(=O)O` [LIOTHYRONINE], the “log(activity)” value rises from 2.08 to 2.74.

Going from `N[C@@H](Cc1cc(I)c(Oc2ccc(O)c(-c3ccccc3)c2)c(I)c1)C(=O)O` to `N[C@@H](Cc1cc(I)c(Oc2cc(F)c(O)c(F)c2)c(I)c1)C(=O)O`, the “log(activity)” value falls from 1.51 to 0.26.

Going from `N[C@@H](Cc1cc(I)c(Oc2cc(Cl)c(O)c(Cl)c2)c(I)c1)C(=O)O` to `N[C@@H](Cc1cc(Cl)c(Oc2cc(I)c(O)c(I)c2)c(Cl)c1)C(=O)O`, the “log(activity)” value falls from -0.05 to -1.

`N[C@@H](Cc1cc(I)c(Oc2cc(Br)c(O)c(Br)c2)c(I)c1)C(=O)O` and `N[C@@H](Cc1cc(Br)c(Oc2cc(I)c(O)c(I)c2)c(Br)c1)C(=O)O` are within 0.2 log units of each other in “log(activity)” value: 1 for the first, 1.1 for the second.

Going from `N[C@@H](Cc1cc(I)c(Oc2cc(F)c(O)c(I)c2)c(I)c1)C(=O)O` to `N[C@@H](Cc1cc(I)c(Oc2cc(I)c(O)c(I)c2)c(I)c1)C(=O)O` [LEVOTHYROXINE], the “log(activity)” value rises from 1.45 to 2.

Going from `N[C@@H](Cc1cc(Br)c(Oc2ccc(O)c(I)c2)c(Br)c1)C(=O)O` to `Cc1cc(C[C@H](N)C(=O)O)cc(C)c1Oc1ccc(O)c(I)c1`, the “log(activity)” value falls from 2.11 to 0.7.

Going from `N[C@@H](Cc1cc(Br)c(Oc2cc(Br)c(O)c(Br)c2)c(Br)c1)C(=O)O` to `Cc1cc(Oc2c(C)cc(C[C@H](N)C(=O)O)cc2C)cc(C)c1O`, the “log(activity)” value rises from -0.29 to 0.3.
